Data published in ChEMBL document CHEMBL5725901, “[7,6]-fused bicyclic antidiabetic compounds” (2018).

Target: Free fatty acid receptor 1 (Homo sapiens, UniProt O14842)
Test: FLIPR Assay: FLIPR (Fluorimetric Imaging Plate Reader, Molecular Devices) assays were performed to measure agonist-induced calcium mobilization of the stable clones. For the FLIPR assay, one day before assay, GPR40/CHO NFAT BLA cells were seeded into black-wall-clear-bottom 384-well plates (Costar) at 1.4×10e4 cells/20 μL medium/well. The cells were incubated with 20 μl/well of the assay buffer (HBSS, 0.1% BSA, 20 mM HEPES, 2.5 mM probenecid, pH 7.4) containing 8 μM fluo-4,AM, 0.08% pluronic acid at room temperature for 100 minutes. Fluorescence output was measured using FLIPR. Compounds were dissolved in DMSO and diluted to desired concentrations with assay buffer. 13.3 μL/well of compound solution was added.

Free fatty acid receptor 1, sequence (O14842 whole entry): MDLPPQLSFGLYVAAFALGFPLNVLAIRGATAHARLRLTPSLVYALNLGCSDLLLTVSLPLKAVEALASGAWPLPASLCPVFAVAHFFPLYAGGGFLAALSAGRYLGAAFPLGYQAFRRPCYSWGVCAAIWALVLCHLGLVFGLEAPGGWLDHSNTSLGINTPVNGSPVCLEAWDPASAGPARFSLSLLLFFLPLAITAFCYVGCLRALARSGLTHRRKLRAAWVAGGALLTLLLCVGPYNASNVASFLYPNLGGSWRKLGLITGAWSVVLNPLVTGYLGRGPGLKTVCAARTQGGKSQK

SMILES: Cc1cccc(C)c1-c1cccc(C2CCCc3cc(CCC(=O)O)ccc3O2)c1 (stereo unspecified)
- EC50: 3.3 µM
